{"source": "patent US9808536B2", "about": "“Hypericin albumin nanoparticle-Escherichia coli serum antibody complex and preperation method and application thereof” (LANZHOU INSTITUTE OF HUSBANDRY AND PHARMACEUTICAL SCIENCES …, priority 2015, dated 2017)", "key": {"Escherichia coli": {"system": "Escherichia coli", "assay": "Treatment of colibacillosis animal model (mice)", "conditions": "control groups, 30 mice; hypericin injection 1.0 mL/mouse intramuscular"}, "[1]": {"system": "pathogenic Escherichia coli", "assay": "Treatment of chicken colibacillosis (sick chickens)", "conditions": "2.00 mg/Kg intramuscular, 2 times/d, 1 d, 50 chickens"}, "[2]": {"system": "Staphylococcus aureus (S. aureus) C26112", "assay": "Minimal inhibitory concentration, double dilution method, Staphylococcus aureus", "conditions": "for minimal inhibitory concentration: Staphylococcus aureus, no growth on agar plate after 24 hours"}, "[3]": {"system": "Escherichia coli (E. coli) C4403", "assay": "Minimal inhibitory concentration, double dilution method, Escherichia coli", "conditions": "for minimal inhibitory concentration: Escherichia coli, no growth on agar plate after 24 hours"}, "[4]": {"conditions": "0.2 μg/ml, 24 hours, eye observation of turbidity"}, "[5]": {"conditions": "0.4 μg/ml, 24 hours, eye observation of turbidity"}, "[6]": {"conditions": "0.8 μg/ml, 24 hours, eye observation of turbidity"}, "[7]": {"conditions": "3.2 μg/ml, 24 hours, eye observation of turbidity"}, "[8]": {"conditions": "6.4 μg/ml, 24 hours, eye observation of turbidity"}, "[9]": {"conditions": "12.8 μg/ml, 24 hours, eye observation of turbidity"}, "[10]": {"conditions": "25.6 μg/ml, 24 hours, eye observation of turbidity"}}, "data": [{"smiles": "Cc1cc(O)c2c(=O)c3c(O)cc(O)c4c5c(O)cc(O)c6c(=O)c7c(O)cc(C)c8c1c2c(c34)c(c78)c65", "note": "[Hypericin, hypericin]", "values": [{"measurement": "Cure (number of mice)", "setting": "Escherichia coli", "result": 10}, {"measurement": "Cure rate (%)", "setting": "Escherichia coli", "result": 33.3, "unit": "%"}, {"measurement": "Effective (number of mice)", "setting": "Escherichia coli", "result": 27}, {"measurement": "Effective rate (%)", "setting": "Escherichia coli", "result": 90, "unit": "%"}, {"measurement": "Cure rate (%)", "setting": "[1]", "result": 70, "unit": "%"}, {"measurement": "Effective rate (%)", "setting": "[1]", "result": 80, "unit": "%"}, {"measurement": "Total amount of cured ones", "setting": "[1]", "result": 35}, {"measurement": "Total amount of effective ones", "setting": "[1]", "result": 40}, {"measurement": "Cure rate (%)", "setting": "[1]; listed as hypericin", "result": 80, "unit": "%"}, {"measurement": "bacterial growth in tube 8", "setting": "[2]; [4]", "result": "+"}, {"measurement": "bacterial growth in tube 7", "setting": "[2]; [5]", "result": "+"}, {"measurement": "bacterial growth in tube 6", "setting": "[2]; [6]", "result": "+"}, {"measurement": "bacterial growth in tube 4", "setting": "[2]; [7]", "result": "−"}, {"measurement": "bacterial growth in tube 3", "setting": "[2]; [8]", "result": "−"}, {"measurement": "bacterial growth in tube 2", "setting": "[2]; [9]", "result": "−"}, {"measurement": "bacterial growth in tube 1", "setting": "[2]; [10]", "result": "−"}, {"measurement": "minimal inhibitory concentration", "setting": "[2]", "result": 0.8, "unit": "µg/mL"}, {"measurement": "minimal inhibitory concentration", "setting": "[2]; listed as 2", "result": 6.4, "unit": "µg/mL"}, {"measurement": "bacterial growth in tube 8", "setting": "[3]; [4]", "result": "+"}, {"measurement": "bacterial growth in tube 7", "setting": "[3]; [5]", "result": "+"}, {"measurement": "bacterial growth in tube 6", "setting": "[3]; [6]", "result": "+"}, {"measurement": "bacterial growth in tube 4", "setting": "[3]; [7]", "result": "−"}, {"measurement": "bacterial growth in tube 3", "setting": "[3]; [8]", "result": "−"}, {"measurement": "bacterial growth in tube 2", "setting": "[3]; [9]", "result": "−"}, {"measurement": "bacterial growth in tube 1", "setting": "[3]; [10]", "result": "−"}, {"measurement": "minimal inhibitory concentration", "setting": "[3]", "result": 0.4, "unit": "µg/mL"}, {"measurement": "minimal inhibitory concentration", "setting": "[3]; listed as 2", "result": 6.4, "unit": "µg/mL"}]}]}
